Assay results: patent US20140220000A1, “MHC ENGAGEMENT AND CLIP MODULATION FOR THE TREATMENT OF DISEASE” (Scott & White Healthcare, priority 2011, published 2014)

How the values were obtained:
[1] = tested on: CRL-5822 cells; assay: Viability counts of CRL-5822 cells after CpG, MKR.4 and Anti MHC Class II treatment (Example 2); type: cell-based; conditions: CpG 1 ug/mL, MKR.4 2.5 ug/mL, Anti MHC Class II 5 ug/mL, 24 hours after antibody
Procedure: CRL-5822 were Prepared as Follows: • Removed the media from a flask of CRL-5822 using a sterile glass pipet and vacuum • Added 1.5 mL of accutase to the flask and placed in incubator for 20 minutes • Washed with 3 mL of PBS • Transferred all to a sterile 15 mL conical tube • Centrifuged for 5′ @ 1000 rpm • Removed supernatant with sterile glass pipet and vacuum • Resuspended in 3 mL of PBS • Performed a hemacytometer count indicating: 1.14*10^6 cells total of CRL-5822 cells • 1.14*10^6/8 wells+2 wells for culture maintenance=10 wells • 1.14*10^6/10 wells=[…] cells per well • Centrifuged the 3 mL of cell suspension for 5′ at 1000 rpm • Resuspended pellet in 10 mL of 10% FBS RPMI • 1 mL of this was added to 2 wells in a 12-well plate added 1 mL of fresh 10% FBS RPMI to each well to bring the total volume up to 2 mL.
(§1) 8 wells were set up for the experiment for each cell type (CRL-5822 and C57BL/6) with no treatment, with CpG, MKR.4 peptide, with MKR.4 peptide+CpG and with or without addition of purified Anti Class-II (HLA-DR,DP,DQ) treatment in the amounts listed below.
CRL-5822 • CpG:(x) (1 mg/mL stock)=(1 ug/mL) (2 mL)x=2 ul • MKR.4: (x) (5 mg/mL stock)=(2.5 ug/mL) (2 mL) x=1 ul • Anti MHC Class II: Treat at 5 ug/mL; Stock is at 1 mg/mL; (x) (1 mg/mL)=(5 ug/mL) (2 mL); x=10 μl/well
(§2) CpG was administered to activate the cells and induce CLIP expression. MKR.4 was added to select wells 24 hours after cell activation. The cells were incubated with MKR.4 for 2 hours. Then fresh media with or without Anti MHC Class II was added. 24 hours after Anti MHC Class II was added to the wells viability counts were performed.

[2] = tested on: C57BL/6 splenocytes; assay: Viability counts of C57BL/6 splenocytes after CpG, MKR.4 and Anti MHC Class II treatment (Example 2); type: cell-based, mouse; conditions: CpG 5 ug/mL, MKR.4 5 ug/mL, Anti MHC Class II 5 ug/mL, 24 hours after antibody
Procedure: C57BL/6 were Prepared as Follows: • A spleen from a C57BL/6 mouse was placed in a cell strainer in a petri dish with 6 mL of PBS • The spleen was mashed to produce a cell suspension • The PBS splenocyte cell suspension was transferred into a labeled 15 mL conical tube and centrifuged for 5 minutes at 1000 rpm • The pellet was resuspended in 1 mL of PBS • Geys was prepared to lyse the red blood cells • 7 mL of DI H20; • 0.5 mL of Geys B • 0.5 mL of Geys C • weighed out […] of NH4Cl • Mixed the […] of NH4Cl with 2 mL of Geys A • Transferred the dissolved solution to a 15 mL conical tube with the H20, Geys B, and Geys C • 3 mL of the Geys solution was added to the 1 mL of PBS cell suspension, mixed well and placed on ice for 1 minute (frequently inverted solution in tube on ice during the 1 minute) • The mixture was centrifuged for 5 minutes at 1000 rpm, washed with 5 mL of PBS, centrifuged for 5 minutes at 1000 rpm and resuspended in 10 mL of PBS • A hemacytometer count was performed: 99.0*10^6 cells total (9.9*10^6 cells/mL) plate 4*10^6 cells per well*8 wells=32 million; 32*10^6/9.9*10^6=3.23 mL of this suspension needed to obtain 32*10^6 cells • Centrifuged 3.23 mL of the suspension for 5 minutes at 1000 rpm and resuspended the pellet in 8 mL of 5% FBS RPMI • 1 mL of suspension was added to each well (12-well plate) • Added another 2 mL of 5% FBS RPMI to each well to bring the final volume up to 3 mL
as §1
CpG: (x) (1 mg/mL stock)=(5 ug/mL) (3 mL) x=15 ul
MKR.4: (x) (5 mg/mL stock)=(5 ug/mL) (3 mL) x=3 ul
Anti MHC Class II: Treat at 5 ug/mL; Stock is at 1 mg/mL; (x) (1 mg/mL)=(5 ug/mL) (3 mL); x=15 ul/well
as §2

[3] = tested on: WITT cells; assay: Hemacytometer viability counts of WITT cells after CpG, MKR.4 and anti-class II treatment (Example 3); type: cell-based, human; conditions: 24 hours after anti-class II
Procedure: 0.59*10^6 cells/mL*5 mL=[…] of WITT cells total were used. The cells were centrifuged at 1000 rpm for 5 minutes and the pellet was resuspended in 9 mL of WITT media. 1 mL of this cell suspension was added to each of […] and a culture flask. Another 2 mL of WITT media was added to each well in the 12 well plate to bring the total volume up to 3 mL. Another 9 mL was added to the T-25 culture flask to bring that total volume up to 10 mL. The plate and flask were placed in the incubator to allow adherence overnight.
(§3) CpG was administered to activate the cells and induce CLIP expression. 15 uL of 1 mg/mL CpG was added into each CpG treated well. MKR.4 was added to select wells 24 hours after cell activation. The cells were incubated with 3 uL of 5 mg/mL stock MKR.4 in DMSO for 2 hours. Then fresh media with or without Anti MHC Class II was added (5 ul/well of stock at 1 mg/mL). 24 hours after Anti MHC Class II was added to the wells viability counts were performed.

[4] = tested on: H69 cells; assay: Hemacytometer viability counts of H69 cells after CpG, MKR.4 and anti-class II treatment (Example 3); type: cell-based, human; conditions: 24 hours after anti-class II
Procedure: Based on cell counts 500,000 H69 cells per well were set up in a 6 well plate-4.0*10^6/2.95*10^6=1.36 mL. The 1.36 mL was added to a new 15 mL conical tube and centrifuged for 5 minutes at 1000 rpm. The pellet was resuspended in 8 mL of H69 media and 1 mL of cell suspension was added to each well. 2 mL of H69 media was added to each well to bring the total volume/well up to 3 mL and the plates were placed in an incubator.
as §3

[5] = tested on: B cells from CLIP−/− (Invariant Chain deficient) mice; assay: Cell death of B cells isolated from CLIP-/- mice (Example 6, FIG. 6B); type: cell-based, mouse; conditions: MKR.4 5 μg/mL, anti-MHCII 2.5 μg/mL, 24 hours
Procedure: (§4) B cells were isolated from the spleens 12 week old male C57B/6 or CLIP−/− (Invariant Chain deficient) mice (Jackson Labs) using the Miltenyi Biotech B cell isolation kit according to the manufacturer's directions. Cells were incubated with or without CpG-ODN (1 mg/mL SEQ ID NO 9: 5′-[…]-3′, purchased from Invivogen) for 48 hours followed by treatment with 5 μg/mL MKR.4 (5 mg/mL, SEQ ID NO 8: ANS GFR IMA VLA SGG QY). Cells were incubated with MKR.4 for 1 hour and then washed followed by treatment with 2.5 μg/mL anti-MHCII (IA/IE, BD Bioscience). 24 hours after anti-MHCII treatment cells were analyzed for cell death using Acridine Organge/propidium iodide staining measured on the Cellometer (Nexcelom), propidium iodide and foreword Vs. side scatter staining measured on a BD FACS Canto II flow cytometer (BD Bioscience). Data was analyzed using FlowJo software (TreeStar).

[6] = tested on: CRL-5822 cells; assay: Viability counts of CRL-5822 cells after LPS, MKR.4 and Anti MHC Class II treatment (Example 1); type: cell-based; conditions: LPS 1 ug/mL, MKR.4 2.5 ug/mL, Anti MHC Class II 5 ug/mL, 24 hours after antibody
Procedure: The media was removed from a flask of CRL-5822 using a sterile glass pipet and vacuum and 1.5 mL of accutase was added to the flask and placed in incubator for 20 minutes. The cells were washed with 3 mL of PBS and transferred to a sterile 15 mL conical tube and centrifuged for 5 minutes @ 1000 rpm. The supernatant was removed with sterile glass pipet and vacuum and the pellet resuspended in 5 mL of PBS. A cell count was performed using the TC-10 automated counter and 10 ul of cell suspension+10 ul of trypan blue was loaded into disposable counting slide and put in the TC-10. The following count was made: Live: 3.54*10^4 cells/mL*5 mL=177,000 cells total & 177,000/9 wells (8 wells in experiment+1 to maintain culture)=19,666 cells/well (flask).
The 5 mL of cell suspension was centrifuged for 5′ at 1000 rpm, the pellet was resuspended in 9 mL of 10% FBS RPMI. 1 mL of the cell suspension was added to a T-25 flask that had 4 mL of media in it and placed in the incubator. After culture 1 mL of the cell suspension was added to each well (8 wells in a labeled 24 well plate). A fresh vial of MKR.4 was resuspended in sterile DMSO. 7 mg of peptide was used to make a 5 mg/mL stock (7 mg/mL=5 mg/mL=1.4 mL of DMSO). The peptide was added into 1.4 mL of DMSO, under the hood to maintain sterility. Once all of the peptide was dissolved, 200 ul aliquots were made. […]

[7] = tested on: B cells from C57B/6 mice; assay: Cell death of B cells isolated from C57B/6 mice (Example 6, FIG. 6A); type: cell-based, mouse; conditions: C57B/6 B cells stimulated with CpG 48 hours, MKR.4 5 μg/mL 1 hour, anti-MHCII 2.5 μg/mL, 24 hours
Procedure: as §4

[8] = tested on: MCF7 ADR cells; assay: Viability counts of MCF7 ADR cells after B-estradiol treatment (Example 5); type: cell-based, human; conditions: 10 nM B-estradiol, about 19 hours after treatment
Procedure: (§5) MCF7 (ATCC (cat# HTB-22)) and MCF7-ADR were grown in 10% FBS RPMI (Gibco RPMI 1640 media cat #21870076) supplemented with Fetal Bovine Serum, L-Glutamine, […], Hepes Buffer, Sodium Pyruvate, and Gentamicin). 1.07*10^6MCF7 cells were plated per well in 2 wells. […] ADR cells were plated per well in 2 wells. The cells were treated with B-estradiol from Sigma (Cat# E2758-250 mg, Lot#110M0138V). In order to prepare a 10 nM final concentration 27.238 mg of B-estradiol was weighed under the hood with a sterile weigh boat and spatula and dissolved in 1 mL of DMSO to make a 0.1M stock, which was then diluted twice: • 1:1000 dilution (1 ul of the 0.1M stock to 999 ul PBS) • 1:100 dilution (10 ul of the 1:000 dilution to 990 ul PBS) 20 ul of the 1:100 diluted solution was added to a final volume of 2 mL per treatment well. The MCF7 and MCF7 ADR were harvested about 19 hours after treatment. The cells were counted and viability is shown below.

[9] = tested on: MCF7 cells; assay: Viability counts of MCF7 cells after B-estradiol treatment (Example 5); type: cell-based, human; conditions: 10 nM B-estradiol, about 19 hours after treatment
Procedure: as §5

Row | Molecule | Total Dead [1] | Total Live [1] | Total Dead [2] | Total Live [2] | Dead [3] | Live [3] | Dead [4] | Live [4] | percent change in cell death [5] | Total Dead [6] | Total Live [6] | percent change in cell death [7] | Dead [8] | Live [8] | Dead [9] | Live [9]
1 | 5′-tcgtcgttttgtcgttttgtcgtt-3′ [CpG] | Total Dead: 0.07 *10^6 | Total Live: 0.35 * 10^6 | Total Dead: 0.08 *10^6 | Total Live: 1.25 * 10^6 | 0.13*10^6 | 0.94*10^6 | Dead: 0.40*10^6 | Live: 1.65*10^6 | – | – | – | – | – | – | – | –
2 | ANS GFR IMA VLA SGG QY (ANSGFRIMAVLASGGQY) [MKR.4] | Total Dead: 0.08 *10^6 | Total Live: 0.24 * 10^6 | Total Dead: 0.10 *10^6 | Total Live: 0.44 * 10^6 | 0.038*10^6 | 0.93*10^6 | Dead: 0.28*10^6 | Live: 1.46*10^6 | no effect on the cell death caused by the MHC class II antibody | Total Dead: 0.07 *10^6 | Total Live: 0.32 * 10^6 | restores the increase in cell death | – | – | – | –
3 | C[C@]12CC[C@@H]3c4ccc(O)cc4CC[C@H]3[C@@H]1CC[C@@H]2O [B-Estradiol, B-estradiol] | – | – | – | – | – | – | – | – | – | – | – | – | 0.07*10^6 | 0.47*10^6 | 0.11*10^6 | 0.50*10^6
